For series [1], the target named is COP9 signalosome complex subunit 5 (Homo sapiens) (UniProt Q92905). Nature of the series: Induction of PD-L1 degradation in […] cells at 10 uM by Western blot analysis. It is filed as cell-based. To be noted: Lewis lung carcinoma cell line, time <= 36.0 hrs. Background: Immunoblotting shows a protein as a band on a membrane.
Series [2] shares this target. Nature of the series: Induction of IFN-gamma-induced PD-L1 degradation in human NCI-H1299 cells at 10 uM incubated for 24 hrs by Western blot analysis. It is filed as cell-based.
Series [3] has as its system PC-9. Put plainly: Antiproliferative activity against human PC-9 cells at 10 uM measured after 4 days by MTT assay. It is filed as functional, cell-based. The following applies: time 4.0 day. Background: Tetrazolium assays rely on reduction of a dye to a coloured formazan, in cell work by metabolically active cells.
For the next series, the system named is Mus musculus. Put plainly: In vivo induction of PD-L1 degradation in […] lung carcinoma cells xenografted in C57BL/6 mouse model at 10 mg/kg, ip administered daily for 10 days by IHC analysis. The following applies: time 10.0 day. It is filed as functional, organism-based. (In general: Xenograft models place foreign cells or tissue in a host animal.)

The test system of series [4] is Lewis lung carcinoma cell line. Put plainly: Antitumor T-cell immune response in Lewis lung carcinoma cells xenografted in C57BL/6 mouse model assessed as decrease in CD3+ CD4+ population in CD45+ T cells in tumor at 10 mg/kg, ip administered daily for 10 days by flow cytometry. It is filed as functional, organism-based. To be noted: time 10.0 day.
For series [5], the system named is Lewis lung carcinoma cell line. Nature of the series: Antitumor T-cell immune response in Lewis lung carcinoma cells xenografted in C57BL/6 mouse model assessed as increase in CD3+ CD8+ infiltration in CD45+ T cells in tumor at 10 mg/kg, ip administered daily for 10 days by flow cytometry. It is filed as functional, organism-based. The following applies: time 10.0 day.

Series [6] has as its system Lewis lung carcinoma cell line. Nature of the series: Antitumor T-cell immune response in Lewis lung carcinoma cells xenografted in C57BL/6 mouse model assessed as increase in IFN-gamma level in tumor at 10 mg/kg, ip administered daily for 10 days by ELISA. It is filed as functional, organism-based. To be noted: time 10.0 day.
Series [7] is described as follows: Toxicity in C57BL/6 mouse model xenografted with […] cells assessed as obvious damage in liver at 10 mg/kg, ip administered daily for 10 days by H and E staining based analysis. It is filed as organism-based. To be noted: in vivo, 240 h, time 10 day.
Series [8] can be described thus: Toxicity in C57BL/6 mouse model xenografted with […] cells assessed as change in ALT level at 10 mg/kg, ip administered daily for 10 days. To be noted: in vivo, 240 h, time 10 day. It is filed as organism-based, Blood.
The nature of series [9]: Toxicity in C57BL/6 mouse model xenografted with […] cells assessed as change in AST level at 10 mg/kg, ip administered daily for 10 days. It is filed as organism-based, Blood. The following applies: in vivo, 240 h, time 10 day.
Series [10] relates to PC-9. Nature of the series: Effect on PD-L1 mRNA level in human PC-9 cells at 10 uM incubated for 24 hrs by qRT-PCR analysis. It is filed as functional, cell-based.
The test system of the next series is A549. Put plainly: Effect on IFN-gamma-induced PD-L1 mRNA expression in human A549 cells at 10 uM by qRT-PCR analysis. It is filed as functional, cell-based.
Series [11] has as its target COP9 signalosome complex subunit 5 (Homo sapiens) (UniProt Q92905). Put plainly: Induction of PD-L1 degradation in human NCI-H460 cells upto 40 uM in presence of chloroquine by Western blot analysis. It is filed as cell-based.
The target is the same in series [12]. Put plainly: Binding affinity to CSN5 in HEK293T cell lysate by Western blot analysis. It is filed as subcellular.
For a further series, the system named is HEK-293T. Nature of the series: Antiproliferative activity against HEK293T cells at 10 uM incubated for 4 days. It is filed as toxicity, cell-based. To be noted: human, 96 h, time 4 day.
Series [13] is described as follows: Antiproliferative activity against human HTori-3 cells at 10 uM incubated for 4 days. It is filed as toxicity, cell-based. The following applies: htori-3, 96 h, time 4 day.

Calls of active or inactive are those of the source. The calls are words filed in the database; no cut-off is given here.

COP9 signalosome complex subunit 5 (Homo sapiens), sequence (Q92905 2-334 limits assumed, one chain of several): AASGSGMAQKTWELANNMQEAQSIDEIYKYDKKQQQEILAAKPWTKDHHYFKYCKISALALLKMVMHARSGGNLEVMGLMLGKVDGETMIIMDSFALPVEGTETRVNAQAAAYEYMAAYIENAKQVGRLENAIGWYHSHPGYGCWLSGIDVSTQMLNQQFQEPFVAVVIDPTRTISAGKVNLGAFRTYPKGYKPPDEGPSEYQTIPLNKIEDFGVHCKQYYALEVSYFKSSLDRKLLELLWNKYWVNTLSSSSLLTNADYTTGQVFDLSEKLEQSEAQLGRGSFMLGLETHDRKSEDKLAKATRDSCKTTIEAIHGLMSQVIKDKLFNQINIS

Consider `COc1cc2c(cc1OC)-c1cc3ccc(OC)c(OCCN)c3c[n+]1CC2.[Cl-]`, for which the Activity result was “Time-dependent-effect” in series [1]; “Non-toxic” in series [7]; “Non-toxic” in [8]; “Non-toxic” in series [9]; “Non-toxic” in the series on HEK-293T; “Non-toxic” in [13]. Besides, the result (in series [2]; with Mus musculus; in series [4]; in series [5]; in series [6]; in [11]) was Active. The result in series [12] was Active. In addition, the result in the series with PC-9 [3], with PC-9 [10] and in the series with A549 was inactive.

For the origin of these results see ChEMBL document CHEMBL6092191, “Advancing Cancer Immunotherapy through Engineering New PD-L1 Degraders: A Comprehensive Study from Small Molecules to PD-L1-Specific Peptide-Drug Conjugates” (J Med Chem, 2024).
